Test results from patent US20240150705A1, “POLYPHENOL INFUSED PROBIOTICS AND METHODS FOR IMPROVED GUT SURVIVABILITY, PERSISTENCE AND COLONIZATION” (THE REGENTS OF THE UNIVERSITY OF CALIFORNIA, priority 2021, published 2024).
Entries after “also recorded” stand apart in the source; their conditions may differ.

Experiments:
Type in all cases: cell-based
[1] = test system: L. paracasei (LP), Lactobacillus casei (LC) and L. rhamnosus (LR) probiotic cells; test: survivability during simulated gastrointestinal treatments (SGF 2 h, then SIF 2 h); details: for Stability of probiotics against gastric pH and bile salt tolerance: infusion in cells
Method: To illustrate the role of phenolic bioactives in influencing cell viability, changes in the intracellular pH and interactions of bile salts with cells were measured after simulated gastric and intestinal treatments respectively. Survivability of cells with and without infused plant extracts were evaluated during simulated gastrointestinal treatments under anaerobic conditions. Simulated gastric fluids (SGF, pH=3) were prepared by adding 0.5% w/v sodium chloride, hydrochloric acid to maintain pH and 3.2 mg/ml pepsin. 1 g of selected bacterial cells with and without infused plant extracts were separately incubated in SGF for 2 h at 37° C. and 100 rpm. After gastric treatment, the cells were pelleted down by centrifuging at 5000 rpm for 2 min and then resuspended in the simulated intestinal fluids (SIF) containing 3.33 mg/mL calcium chloride, 5 g/L sodium chloride, 10 mM bile salts and pancreatin (100 U/ml) in 0.025 M potassium phosphate buffer (pH=7). Digestion mixtures were incubated at 37° C. and 100 rpm for 2 h. After the simulated gastric and intestinal digestions, both the phenolic infused cells and control cells were isolated by centrifuging at 5000 rpm for 2 min and will be washed three times with autoclaved 1×PBS. Viable cells were enumerated after serial dilutions on selective media plates. The viability of cells were measured in triplicates and the results of these measurements were averaged. Live probiotic cells must reach the colon alive for colonization and related health benefits. These figures plot survivability of L. paracasei (LP), Lactobacillus casei (LC) and L. rhamnosus (LR) probiotic cells with and without infused plant extracts during simulated gastrointestinal treatments with simulated gastric fluid (SGF) for 2 h, followed by the treatment with simulated intestinal fluid (SIF) for next 2 h.

L. casei cells = test: survivability of model probiotic L. casei cells loaded with other polyphenols or mixed with catechin during simulated digestion (FIG. 6); details: for survivability of probiotic bacteria during simulated gastro-intestinal digestion: L. casei cells infused
Method: To illustrate the role of phenolic bioactives in influencing cell viability, changes in the intracellular pH and interactions of bile salts with cells were measured after simulated gastric and intestinal treatments respectively. Survivability of cells with and without infused plant extracts were evaluated during simulated gastrointestinal treatments under anaerobic conditions. Simulated gastric fluids (SGF, pH=3) were prepared by adding 0.5% w/v sodium chloride, hydrochloric acid to maintain pH and 3.2 mg/ml pepsin. 1 g of selected bacterial cells with and without infused plant extracts were separately incubated in SGF for 2 h at 37° C. and 100 rpm.
After gastric treatment, the cells were pelleted down by centrifuging at 5000 rpm for 2 min and then resuspended in the simulated intestinal fluids (SIF) containing 3.33 mg/mL calcium chloride, 5 g/L sodium chloride, 10 mM bile salts and pancreatin (100 U/ml) in 0.025 M potassium phosphate buffer (pH=7). Digestion mixtures were incubated at 37° C. and 100 rpm for 2 h. After the simulated gastric and intestinal digestions, both the phenolic infused cells and control cells were isolated by centrifuging at 5000 rpm for 2 min and will be washed three times with autoclaved 1×PBS. Viable cells were enumerated after serial dilutions on selective media plates. The viability of cells were measured in triplicates and the results of these measurements were averaged.
Survivability of probiotic cells was not improved if polyphenols were not infused in cells but only added in the same amount to the gastric fluid.

[2] = test system: L. casei, L. paracasei and L. rhamnosus cells; test: metabolic activity by resazurin fluorescence assay after simulated gastric fluid; details: infused L. casei cells, SGF
Method: For this assay, 6 log CFUs/ml of cells (with and without infused phenolic actives) in selective culture media was prepared. 1 mL of each of the samples were added to a flat bottom 24 well culture plates and 50 μM of resazurin was added to each well plates. Plates were sealed with PCR sealing films inside anerobic cabinet to maintain in-situ anaerobic conditions and were immediately incubated at 37° C. for 16 h. Fluorescence data was collected each 5 min at 580 nm (λex=530 nm). The reduction of resazurin was evaluated by the assay. After cells were treated with simulated gastric fluid, 1 mL of each samples was centrifugated (16,000×g for 2 min) and resuspended in 1 mL of MRS broth containing 50 μM of resazurin. Then, plate was incubated at 37° C. for 16 h and read each 5 min (530 nm/580 nm). […] The reduction of resazurin to resorufin (fluorescent form) was measured to correlate with the metabolic activity of three types of probiotic cells with different infused polyphenols and conditions, as shown in FIG. 7 through FIG. 20. The production of resorufin increases the intensity of fluorescence, while the reduction of the peak is related with the production of hydroresorufin.

Compound | survivability / stability during simulated gastro-intestinal digestion ([1]; infused cells, SGF then SIF) | Stability of probiotics against gastric pH and bile salt tolerance [1] | survivability of probiotic bacteria during simulated digestion (L. casei cells; simply mixed with cells or added to gastric fluid, not infused) | survivability of probiotic bacteria during simulated gastro-intestinal digestion (L. casei cells) | metabolic activity after simulated gastric treatment [2]
catechin | stable; also recorded: maintained their population | enhanced | no significant improvement in survivability |  | 
COc1cc(/C=C/C(=O)CC(=O)/C=C/c2ccc(O)c(OC)c2)ccc1O [curcumin] |  | enhanced |  | Enhanced stability; also recorded: significantly enhance survivability | further suppressed
O=c1c(O)c(-c2ccc(O)c(O)c2)oc2cc(O)ccc12 [fisetin] |  | enhanced |  | Enhanced stability; also recorded: significantly enhance survivability | 
